{"source": "patent US12433903B2", "about": "(priority 2021, dated 2025)", "key": {"[1]": {"test_system": "PTZ-induced seizure", "assay": "PTZ-induced epilepsy (seizure) mouse model", "format": "in vivo", "conditions": "100 mg/kg IP, CBD 60 minutes, Compound 3 30 minutes prior to PTZ 80 mg/kg; for Survival Effects: mortality rate compared to the vehicle/PTZ group: 30 minute observation", "description": "Mouse models using GABAa receptor antagonist Pentylenetetrazol (PTZ) are well defined and used as a standard for the identification of potential anticonvulsants to treat generalized clonic seizures (Loscher et al., 1991 Epilepsy Res 8:171-189). The purpose of this study was to evaluate and compare CBD to test article Compound 3, on their therapeutic effects in a mouse model of PTZ-induced seizure. To match up test article plasma concentration time max (Tmax) with the PTZ induced seizures; test articles were administered at 60 minutes and 30 minutes prior to PTZ administration respectively. Vehicle used for treatment groups was 10% EtOH/10% Tween 80/80% Saline.\nMice were acclimated to the procedure room for at least 30 minutes. Pentylenetetrazole (PTZ; Sigma Aldrich) was formulated in water to a concentration of 16 mg/mL. Injections of PTZ were made at a volume of 5 mL/kg to produce a final dose of 80 mg/kg.\nA 30-minute maximum latency to seizure was imposed. • Clinical behavior was scored using the following adapted Racine scale: • Score 0, no seizures observed • Score 1, Behavioral arrest (freezing, fixed gaze, staring), vibrissae twitching, mouth or facial clonus • Score 2, Pop or jump, straub tail, foot splay, head nodding • Score 3, Forelimb clonus, extended forelimbs, multiple pops or jerks • Score 4, Rearing and bilateral forelimb clonus, Running and running/bouncing • Score 5, All limb clonus, rearing and falling (stay fallen on rear side) • Score 6, Tonic hindlimb extensions, cardiac arrest\nBehavior was scored by an observer blind to treatment. The highest score reached during every 5 minute period during the 30 minutes after PTZ was administered was recorded. Additionally, the percent tonic-clonic (number of animals progressing to the highest seizure score), and percent mortality was also calculated."}, "[2]": {"assay": "PK and Tmax after intraperitoneal administration", "format": "in vivo", "conditions": "male C57BL/6 mice; for Tmax: mouse, in vivo", "description": "The purpose of this study was to determine the pharmacokinetics and time of maximum plasma (Tmax) of the test articles (TA) CBD and Compound 3 following intraperitoneal (IP) administration to male C57BL/6 mice. This method of TA delivery, dose and mouse strain was to be used in a subsequent Pentylenetetrazol (PTZ) induced seizure model for the evaluation of the TA's for anti-epileptic activity."}, "[3]": {"molecular_target": "T1, UGT1A4 (Homo sapiens, UniProt P22310)", "T1 construct": "purchased BD Biosciences", "T1 sequence (P22310 29-534)": "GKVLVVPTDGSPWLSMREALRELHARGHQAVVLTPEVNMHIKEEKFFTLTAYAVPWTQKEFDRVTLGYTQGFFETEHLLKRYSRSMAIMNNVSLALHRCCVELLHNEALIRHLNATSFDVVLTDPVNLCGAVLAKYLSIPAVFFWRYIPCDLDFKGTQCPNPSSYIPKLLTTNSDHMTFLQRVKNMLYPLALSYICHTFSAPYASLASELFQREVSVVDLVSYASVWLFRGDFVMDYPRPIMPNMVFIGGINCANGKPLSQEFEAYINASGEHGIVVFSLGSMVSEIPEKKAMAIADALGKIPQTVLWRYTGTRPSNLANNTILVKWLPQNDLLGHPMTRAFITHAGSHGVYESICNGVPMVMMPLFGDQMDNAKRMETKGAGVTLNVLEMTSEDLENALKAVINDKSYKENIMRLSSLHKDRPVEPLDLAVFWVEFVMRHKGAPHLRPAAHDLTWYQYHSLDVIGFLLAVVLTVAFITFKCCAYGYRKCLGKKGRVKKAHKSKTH", "assay": "UGT reaction phenotyping, UGT1A4", "format": "in vitro ADME", "conditions": "glucuronide formed from trifluoperazine 1 μM, printed in the half-life column with *", "description": "Experimental Summary: UGT Reaction Phenotyping (7 Isoforms)."}, "[4]": {"test_system": "lipopolysaccharide (LPS)-induced inflammation", "assay": "Anti-inflammatory activity in a rat LPS model (serum cytokines)", "format": "in vivo, Sprague Dawley rats", "conditions": "PO QD x 4, LPS 5 mg/kg IP, 2 h after LPS", "protocol": "This assay was employed to determine the efficacies of CBG, compound 1, and compound 2 against lipopolysaccharide (LPS)-induced inflammation in Sprague Dawley rats.\nEight- to 10-week-old male rats were treated with CBG, Compound 1, and Compound 2, or a positive control (cyclosporin A) for four days prior to treatment with LPS. Twenty-eight (28) Sprague Dawley male rats, 8-10 weeks old, were used for this study. Animals were randomized by weight into one of 7 treatment groups as shown in Table 10 below and treated for 4 days with either vehicle control (Groups 1 and 2), Cyclosporin A (Neoral) (Group 3), CBG at 30 mg/kg (Group 4), Compound 1 at 31.5 mg/kg (Group 5), Compound 2 at 32.7 mg/kg (Group 6) or CBG at 30 mg/kg (intraperitoneal/IP; Group 7). Groups 1-6 were dosed for 4 days by oral gavage; group 7 was dosed for 4 days by IP injection. After the 4th injection, Groups 2-7 received a single IP injection of LPS at 5 mg/kg to induce inflammation. Body weight was recorded every other day starting on the day of or day prior to the first day of treatment. A terminal body weight was recorded. General health and clinical signs were recorded once daily. Blood was collected to isolate immune cells at 2 hours after the LPS injection. […]\nSerum samples (N=82) were processed and shipped to Inotiv Boulder for analysis. […] The samples were analyzed for cytokine levels using the RECYTMAG-65K Luminex™ kit. […]"}, "[5]": {"assay": "PK study after oral (PO) or intraperitoneal (IP) administration", "format": "in vivo, male Sprague Dawley rats", "conditions": "CBG 30 mg/kg PO or IP; Compound 1 31.5 mg/kg PO; Compound 2 32.7 mg/kg PO", "protocol": "This study evaluated the pharmacokinetics of (E)-2-(3,7-dimethylocta-2,6-dien-1-yl)-3-methoxy-5-pentylphenol (1) and (E)-2-(3,7-dimethylocta-2,6-dien-1-yl)-1,3-dimethoxy-5-pentylbenzene (2) following oral (PO) or intraperitoneal (IP) administration to male Sprague Dawley rats.\nFor the oral formulation the test article was added to the appropriate amount of Maisine and stirred until uniform. Next Labrasol was added to the formulation and allowed to stir until uniform. Finally, water will be slowly added to the stirring formulation to achieve the final volume.\nFor the IP formulation the test article was added to the appropriate amount of ethanol and stirred until uniform. Next, the appropriate amount of tween-20 was added to the stirred formulation. Finally, the appropriate amount of saline was slowly added to the stirred formulation to achieve the final volume.\nAnimals were fasted the evening prior to dosing with food returned at 4 h postdose, and the animals weighed on the morning of dose administration.\nIP doses were administered via injection to the intraperitoneal region. PO doses were delivered into the stomach via syringe and gavage tube.\nBlood was collected from via direct jugular stick or from the tail vein. Blood samples were kept on ice until being centrifuged at 3200 RPM for 10 minutes at ˜5° C. within 1 h of collection. Plasma was split into 2 cryovials in approximately equal volumes (0.05 mLs) and stored at −20° C.±5° C. until shipment."}, "[6]": {"test_system": "indomethacin induced intestinal injury", "assay": "Indomethacin-induced Crohn's disease in rats", "format": "in vivo", "protocol": "The objective of this study was to determine the efficacy of Compound 1 and Compound 2 in a model of Crohn's disease (indomethacin induced intestinal injury) in rats.\nThe study design was identical for Compound 1 and Compound 2. On study day -3, rats were weighed and distributed into treatment groups based on body weight.\nOn study day 0, treatment was initiated and continue as indicated in the Study Design Tables below. Groups 2-6 received a subcutaneous injection of indomethacin (9 mg/kg, 1 ml/kg) in 5% sodium bicarbonate (Sterile Water). On study day 1, Groups 2-6 received a second subcutaneous injection of indomethacin (8 mg/kg, 1 ml/kg) in 5% sodium bicarbonate (Sterile Water). Live phase sample & data collection specifics are outlined below. On study day 4, animals will be euthanized, a section of the small intestine will be removed and weighed. Further necropsy sample and data collection is specified below. Overall efficacy of test articles will be based on body weight, small intestine weight (10 cm), small intestine gross score, and histopathology\nAt necropsy, the small intestines were evaluated visually and given a gross score according to the following criteria: 0=Normal. 0.5=Very Minimal thickening, multifocal in area at risk. 1=Minimal thickening, fairly diffuse in area at risk. 2=Mild to moderate small intestinal/mesenteric thickening throughout area at risk. 3=Moderate thickening with 1 or more definite adhesions that would be easy to separate. 4=Marked thickening with numerous hard to separate adhesions. 5=Severe intestinal lesion resulting in death.\nPreserved 9-cm sections of small intestine were trimmed into 6 transverse sections collected at approximately equal intervals along the […] of the intestine, without bias toward lesion presence or absence. These trimmed sections were processed through graded alcohols and a clearing agent, infiltrated and embedded in paraffin, sectioned, and stained with hematoxylin and eosin (H&E).\nSmall intestine sections from all animals were examined microscopically by a board-certified veterinary pathologist, and observations were entered into a computer-assisted data retrieval system. Cross sections of small intestine were scored for inflammation and necrosis using the following criteria:\nThe area at risk for development of this lesion is generally approximately 30% of the total area of a cross section of small intestine where the mesentery attaches.\nInflammation is localized to the mesentery and intestinal area at risk for necrosis with slight extension on either side of it. […] In this case, inflammation is scored based on overall severity ranging from 0.5 (very minimal) to 5 (severe) without regard for the extent of necrosis. The mean score for necrosis and inflammation was calculated for each animal and these mean scores were then summed to arrive at a total score. Each section also has a measurement of total width of mucosal necrosis."}}, "note": "Entries after “also recorded” stand apart in the source; their conditions may differ. Where two headings read alike, the source gives them in different places.", "data": [{"smiles": "C=C(C)[C@@H]1CCC(C)=C[C@H]1c1c(O)cc(CCCCC)cc1O", "note": "[CBD, cannabidiol]", "values": [{"measurement": "Latency to Clonic Seizure Event compared to PTZ alone", "setting": "[1]", "value": "did not yield a significantly different latency"}, {"measurement": "Latency to First Seizure Event compared to PTZ alone", "setting": "[1]", "value": "did not result in a difference in latency to first seizure"}, {"measurement": "Latency to Tonic Seizure Event compared to PTZ alone", "setting": "[1]", "value": "did not yield a significantly different latency"}, {"measurement": "Percent of animals reaching Tonic-clonic Stage 6 compared to PTZ alone", "setting": "[1]", "value": "did not yield a significantly difference in proportion; also recorded: did not yield a significant difference in proportion"}, {"measurement": "Racine scores over 5 minute intervals for 30 minutes compared to PTZ alone", "setting": "[1]", "value": "did not yield a significant change in clinical score"}, {"measurement": "Survival Effects: mortality rate compared to the vehicle/PTZ group", "setting": "[1]", "value": "did not yield a significantly reduced mortality rate"}, {"measurement": "Tmax", "setting": "[2]; 100 mg/kg, IP", "value": 60, "unit": "min"}]}, {"smiles": "C[N+]1([C@@H]2O[C@H](C(=O)[O-])[C@@H](O)[C@H](O)[C@H]2O)CCN(CCCN2c3ccccc3Sc3ccc(C(F)(F)F)cc32)CC1", "note": "[Trifluoperazine Glucuronide]", "values": [{"measurement": "average peak area ratio at 60 min/average peak area ratio at 0 min", "setting": "[3]", "value": "*6.38"}]}, {"smiles": "C=C(C)[C@@H]1CCC(C)=C[C@H]1c1c(O)cc(CCCCC)cc1OC", "note": "[Compound 3, (1′R,2′R)-6-methoxy-5′-methyl-4-pentyl-2′-(prop-1-en-2-yl)-1′,2′,3′,4′-tetrahydro-[1,1′-biphenyl]-2-ol]", "values": [{"measurement": "Latency to Clonic Seizure Event compared to PTZ alone", "setting": "[1]", "value": "did not yield a significantly different latency; also recorded: strong trend toward longer latency"}, {"measurement": "Latency to First Seizure Event compared to PTZ alone", "setting": "[1]", "value": "trended towards a longer latency"}, {"measurement": "Latency to Tonic Seizure Event compared to PTZ alone", "setting": "[1]", "value": "significantly longer latency"}, {"measurement": "Percent of animals reaching Tonic-clonic Stage 6 compared to PTZ alone", "setting": "[1]", "value": "significantly lower proportion"}, {"measurement": "Racine scores over 5 minute intervals for 30 minutes compared to PTZ alone", "setting": "[1]", "value": "significant improvement in Racine scores"}, {"measurement": "Survival Effects: mortality rate compared to the vehicle/PTZ group", "setting": "[1]", "value": "significantly reduced mortality rate"}, {"measurement": "Cmax, fold greater than CBD", "setting": "[2]; IP", "value": 8, "unit": "fold"}, {"measurement": "plasma PK Area Under the Curve (AUC), fold greater than CBD", "setting": "[2]; IP", "value": "over 4 fold"}, {"measurement": "Tmax", "setting": "[2]; plasma, 100 mg/kg IP, read-out: TMax (converted)", "value": 30, "unit": "min"}, {"measurement": "reduction of IL-1B and IFNy, performance relative to CBG", "setting": "[4]", "value": "equal to or better than CBG"}]}, {"smiles": "CCCCCc1cc(OC)c(C/C=C(\\C)CCC=C(C)C)c(OC)c1", "note": "[Compound 2, (E)-2-(3,7-dimethylocta-2,6-dien-1-yl)-1,3-dimethoxy-5-pentylbenzene]", "values": [{"measurement": "reduction of IL-1B and IFNy, performance relative to CBG", "setting": "[4]", "value": "equal to or better than CBG"}, {"measurement": "glucuronidation / glucuronide formation in plasma (in words)", "setting": "[5]", "value": "completely blocked glucuronide formation"}, {"measurement": "small intestine gross score compared to vehicle", "setting": "[6]; Group 4 (Compound 1: 50 mg/kg PO)", "value": "trend in lower small intestine gross score"}, {"measurement": "reduction of necrosis width, of vehicle", "setting": "[6]; Group 5", "value": 99, "unit": "%"}, {"measurement": "histopathology scores vs vehicle and dexamethasone", "setting": "[6]; Group 5 & 6", "value": "significantly lower"}, {"measurement": "necrosis width vs vehicle and dexamethasone", "setting": "[6]; Group 5 & 6", "value": "significantly lower"}, {"measurement": "reduction of necrosis width, of vehicle", "setting": "[6]; Group 6", "value": 96, "unit": "%"}, {"measurement": "Histopathology scores vs vehicle (Group 2)", "setting": "[6]; Groups 4-6", "value": "lower than the vehicle"}, {"measurement": "necrosis width vs vehicle (Group 2)", "setting": "[6]; Groups 4-6", "value": "lower than the vehicle"}, {"measurement": "small intestine gross score compared to vehicle", "setting": "[6]; Groups 5-6 (Compound 1: 200 and 800 mg/kg PO)", "value": "significant reductions in gross score"}, {"measurement": "small intestine weight compared to vehicle", "setting": "[6]; all three treatment groups (Groups 4-6), PO days 0-3", "value": "significantly lower"}, {"measurement": "body weight change from Study Day -3 (preventing weight loss)", "setting": "[6]; all treatment groups (Groups 4-6), PO days 0-3, in comparison to dexamethasone (Compound 2: and vehicle)", "value": "all trended towards or had significant differences in preventing weight loss"}]}]}
